Laboratory results published in US4220755A, “Fortimicin B derivatives and process for production thereof” (Abbott Laboratories, priority 1976, dated 1980).
≈ marks a conversion by molar mass, not a printed value.

Tests used:
[1] = test system: Escherichia coli NIHTC-2; assay: MIC, agar dilution method, pH 7.2; type: cell-based; conditions: Escherichia coli, NIHTC2, pH 7.2, read-out: Minimum inhibition concentration (MIC)
Protocol: (§1) Measurement was carried out according to the agar dilution method, using a medium of pH 8.0, or the Japanese Antibiotic Medicament Standard, using a medium of pH 7.2 Units are in mcg/ml.

[2] = test system: Eschericihia coli GN2411-5; assay: MIC, agar dilution method, pH 7.2; type: cell-based; conditions: Escherichia coli, GN2411, pH 7.2, read-out: Minimum inhibition concentration (MIC)
Protocol: as §1

[3] = test system: Klebsiella pneumoniae KY4274; assay: MIC, agar dilution method, pH 7.2; type: cell-based; conditions: Klebsiella pneumoniae, KY4274, pH 7.2, read-out: Minimum inhibition concentration (MIC)
Protocol: as §1

[4] = test system: Proteus vulgaris JJ; assay: MIC, agar dilution method, pH 7.2; type: cell-based; conditions: Proteus vulgaris, pH 7.2, read-out: Minimum inhibition concentration (MIC)
Protocol: as §1

[5] = test system: Pseudomonas aeruginosa BMH# 1; assay: MIC, agar dilution method, pH 7.2; type: cell-based; conditions: pH 7.2; Pseudomonas aeruginosa BMH# 1; read-out: Minimum inhibition concentration (MIC)
Protocol: as §1

[6] = test system: Pseudomonas aeruginosa UCLA 4184; assay: MIC, agar dilution method, pH 7.2; type: cell-based; conditions: UCLA4184; pH 7.2; Pseudomonas aeruginosa UCLA 4184; read-out: Minimum inhibition concentration (MIC)
Protocol: as §1

[7] = test system: Salmonella enteritidis G-14; assay: MIC, agar dilution method, pH 7.2; type: cell-based; conditions: Salmonella enterica, ENTERITIDIS, pH 7.2, read-out: Minimum inhibition concentration (MIC)
Protocol: as §1

[8] = test system: Shigella sonnei ATCC9290; assay: MIC, agar dilution method, pH 7.2; type: cell-based; conditions: read-out: Minimum inhibition concentration (MIC)
Protocol: as §1

[9] = test system: Staphylococcus aureus 209-P; assay: MIC, agar dilution method, pH 7.2; type: cell-based; conditions: pH 7.2; Staphylococcus aureus 209-P; read-out: Minimum inhibition concentration (MIC)
Protocol: as §1

[10] = test system: Staphylococcus aureus Smith (A); assay: MIC, agar dilution method, pH 7.2; type: cell-based; conditions: pH 7.2; Staphylococcus aureus Smith (A); read-out: Minimum inhibition concentration (MIC)
Protocol: as §1

[11] = test system: Staphylococcus a ureus 226; assay: MIC, agar dilution method, pH 7.2; type: cell-based, Staphylococcus aureus; conditions: pH 7.2; Staphylococcus aureus 226; read-out: Minimum inhibition concentration (MIC)
Protocol: as §1

[12] = test system: Eschericihia coli 3100; assay: MIC, agar dilution method, pH 7.2; type: cell-based, Escherichia coli; conditions: Escherichia coli; pH 7.2; E. coli 3100; read-out: Minimum inhibition concentration (MIC)
Protocol: as §1

[13] = test system: Escherichia coli 57R/W677; assay: MIC, agar dilution method, pH 7.2; type: cell-based; conditions: 57R/W677, pH 7.2, read-out: Minimum inhibition concentration (MIC)
Protocol: as §1
(§2) **1: gentamicin, producing adenylsynthetase.

[14] = test system: Escherichia coli 76-2; assay: MIC, agar dilution method, pH 7.2; type: cell-based; conditions: Escherichia coli, 762, pH 7.2, read-out: Minimum inhibition concentration (MIC)
Protocol: as §1, §2

[15] = test system: Escherichia coli R12 Z-338; assay: MIC, agar dilution method, pH 7.2; type: cell-based; conditions: R12Z338, pH 7.2, E. coli R12 Z-338, 1**: gentamicin, producing adenylsynthetase, read-out: Minimum inhibition concentration (MIC)
Protocol: as §1, §2

[16] = test system: Klebsiella pneumoniae 3020 Y-60; assay: MIC, agar dilution method, pH 7.2; type: cell-based; conditions: 3020Y60; pH 7.2; Klebsiella pneumoniae 3020 Y-60; 1**: gentamicin, producing adenylsynthetase; read-out: Minimum inhibition concentration (MIC)
Protocol: as §1, §2

[17] = test system: Escherichia coli R18 KY8321; assay: MIC, agar dilution method, pH 7.2; type: cell-based; conditions: R18KY8321, E. coli R18 KY8321, 2**: gentamicin, producing adenylsynthetase and neomycin phosphotransferase type II, read-out: Minimum inhibition concentration (MIC)
Protocol: as §1
2: gentamicin, producing adenylsynthetase and neomycin phosphotransferase

[18] = test system: Escherichia coli R17 Z343; assay: MIC, agar dilution method, pH 7.2; type: cell-based; conditions: R17Z343, pH 7.2, read-out: Minimum inhibition concentration (MIC)
Protocol: as §1
(§3) 3: kanamycin, producing acetyltransferase.

[19] = test system: Pseudomonas aeruginosa R9 KY8516; assay: MIC, agar dilution method, pH 7.2; type: cell-based; conditions: R9KY8516, pH 7.2, P. aeruginosa R9 KY8516, 3**: kanamycin, producing acetyltransferase, read-out: Minimum inhibition concentration (MIC)
Protocol: as §1, §3

[20] = test system: Serratia marcescens 1065; assay: MIC, agar dilution method, pH 7.2; type: cell-based; conditions: Serratia marcescens, 1065, pH 7.2, read-out: Minimum inhibition concentration (MIC)
Protocol: as §1, §3

[21] = test system: Escherichia coli R19 KY8348; assay: MIC, agar dilution method, pH 7.2; type: cell-based; conditions: R19KY8348, pH 7.2, E. coli R19 KY8348, 4**: gentamicin, producing acetyltransferase type I, read-out: Minimum inhibition concentration (MIC)
Protocol: as §1
(§4) 4: gentamicin, producing acetyltransferase type I.

[22] = test system: Pseudomonas aeruginosa R4 KY8511; assay: MIC, agar dilution method, pH 7.2; type: cell-based; conditions: R4KY8511, pH 7.2, P. aeruginosa R4 KY8511, 4**: gentamicin, producing acetyltransferase type I, read-out: Minimum inhibition concentration (MIC)
Protocol: as §1, §4

[23] = test system: Escherichia coli R20 KY8349; assay: MIC, agar dilution method, pH 7.2; type: cell-based; conditions: R20KY8349, pH 7.2, E. coli R20 KY8349, 5**: neomycin, producing phosphotransferase type I, read-out: Minimum inhibition concentration (MIC)
Protocol: as §1
5: neomycin, producing phosphotransferase type I.

[24] = test system: Pseudomonas aeruginosa R5 KY8512; assay: MIC, agar dilution method, pH 7.2; type: cell-based; conditions: R5KY8512, pH 7.2, P. aeruginosa R5 KY8512, 6**: neomycin, producing phosphotransferase type I and type II, read-out: Minimum inhibition concentration (MIC)
Protocol: as §1
6: neomycin, producing phosphotransferase type I and type II.

[25] = test system: Providencia sp 164; assay: MIC, agar dilution method, pH 7.2; type: cell-based; conditions: pH 7.2; Providencia sp 164; 7**: gentamicin, producing acetyltransferase type II; read-out: Minimum inhibition concentration (MIC)
Protocol: as §1
7: gentamicin, producing acetyltransferase type II.

[26] = test system: Staphylococcus aureus KY4279 ATCC6538P; assay: MIC, agar dilution method, pH 8.0; type: cell-based; conditions: pH 8.0, Staphylococcus aureus KY4279, read-out: Minimum inhibition concentration (MIC), SA
Protocol: as §1
S.A.: Staphylococcus aureus KY4279 ATCC6538P

[27] = test system: Bacillus subtilis KY4273; assay: MIC, agar dilution method, pH 8.0; type: cell-based; conditions: pH 8.0; Bacillus subtilis KY4273; read-out: Minimum inhibition concentration (MIC), BS
Protocol: as §1
B.S.: Bacillus subtilis KY4273

[28] = test system: Eschericia coli KY4271 ATCC26; assay: MIC, agar dilution method, pH 8.0; type: cell-based; conditions: Escherichia coli, ATCC26; pH 8.0; E. coli KY4271; read-out: Minimum inhibition concentration (MIC), EC
Protocol: as §1
E.C.: Eschericia coli KY4271 ATCC26

[29] = test system: Proteus vulgaris KY4277 ATCC6897; assay: MIC, agar dilution method, pH 8.0; type: cell-based; conditions: ATCC6897; pH 8.0; Proteus vulgaris KY4277; read-out: Minimum inhibition concentration (MIC), PV
Protocol: as §1

[30] = test system: Shigella sonnei KY4281 ATCC9290; assay: MIC, agar dilution method, pH 8.0; type: cell-based; conditions: ATCC9290; pH 8.0; Shigella sonnei KY4281; read-out: Minimum inhibition concentration (MIC), SS
Protocol: as §1

[31] = test system: Salmonella typhosa KY4278 ATCC9992; assay: MIC, agar dilution method, pH 8.0; type: cell-based; conditions: Salmonella enterica, pH 8, read-out: Minimum inhibition concentration (MIC), ST
Protocol: as §1
S.T.: Salmonella typhosa KY4278 ATCC9992

[32] = test system: Klebsiella pneumoniae KY4275 ATCC10031; assay: MIC, agar dilution method, pH 8.0; type: cell-based; conditions: ATCC10031; pH 8.0; Klebsiella pneumoniae KY4275; read-out: Minimum inhibition concentration (MIC), KP
Protocol: as §1
K.P.: Klebsiella pneumoniae KY4275 ATCC10031.

## CO[C@H]1[C@@H](O)[C@H](N)[C@@H](O[C@H]2O[C@H]([C@H](C)N)CC[C@H]2N)[C@H](O)[C@@H]1N(C)CC(O)CCN (stereo partly drawn) [Compound 29, 4-N-[(R,S)-4-amino-2-hydroxybutyl]fortimicin B]
[1]
  MIC: 3.12 µg/mL (≈ 7.16 µM)
[2]
  MIC: 6.25 µg/mL (≈ 14.3 µM)
[3]
  MIC: 6.25 µg/mL (≈ 14.3 µM)
[4]
  MIC: 3.12 µg/mL (≈ 7.16 µM)
[5]
  MIC: 12.5 µg/mL (≈ 28.7 µM)
[6]
  MIC: 25 µg/mL (≈ 57.4 µM)
[7]
  MIC: 6.25 µg/mL (≈ 14.3 µM)
[8]
  MIC: 6.25 µg/mL (≈ 14.3 µM)
[9]
  MIC: 0.4 µg/mL (≈ 0.918 µM)
[10]
  MIC: 0.4 µg/mL (≈ 0.918 µM)
[11]
  MIC: 0.78 µg/mL (≈ 1.79 µM)
[12]
  MIC: 12.5 µg/mL (≈ 28.7 µM)
[13]
  MIC: 12.5 µg/mL (≈ 28.7 µM)
[14]
  MIC: 3.12 µg/mL (≈ 7.16 µM)
[15]
  MIC: 12.5 µg/mL (≈ 28.7 µM)
[16]
  MIC: 25 µg/mL (≈ 57.4 µM)
[17]
  MIC: 12.5 µg/mL (≈ 28.7 µM)
[18]
  MIC: 3.12 µg/mL (≈ 7.16 µM)
[19]
  MIC: 50 µg/mL (≈ 115 µM)
[20]
  MIC: 6.25 µg/mL (≈ 14.3 µM)
[21]
  MIC: > 100 µg/mL
[22]
  MIC: > 100 µg/mL
[23]
  MIC: 3.12 µg/mL (≈ 7.16 µM)
[24]
  MIC: 12.5 µg/mL (≈ 28.7 µM)
[25]
  MIC: 25 µg/mL (≈ 57.4 µM)
[26]
  MIC: 0.08 µg/mL (≈ 0.184 µM)
[27]
  MIC: 0.04 µg/mL (≈ 0.0918 µM)
[28]
  MIC: 0.16 µg/mL (≈ 0.367 µM)
[29]
  MIC: 0.32 µg/mL (≈ 0.735 µM)
[30]
  MIC: 0.63 µg/mL (≈ 1.45 µM)
[31]
  MIC: 0.16 µg/mL (≈ 0.367 µM)
[32]
  MIC: 0.63 µg/mL (≈ 1.45 µM)
